How the values were obtained:
[1] = tested on: Ipomoea hederaceae (IPOHE); assay: Post-emergence biological efficacy, glasshouse pot test; assay type: in vivo; settings: 312 h, 1,000 g/ha, post-emergence (sprayed after 8 days), evaluated after 13 days, 100=total damage, 0=no damage, read-out: Percentage damage caused to weed species, post-emergence, IPOHE
Description: (§1) Seeds of Alopecurus myosuroides (ALOMY), Setaria faberi (SETFA), Echinochloa crus-galli (ECHCG), Solanum nigrum (SOLNI), Amaranthus retroflexus (AMARE) and Ipomoea hederaceae (IPOHE) were sown in standard soil in pots. After cultivation for 8 days under controlled conditions in a glasshouse (at 24/16° C., day/night; 14 hours light; 65% humidity), the plants were sprayed with an aqueous spray solution derived from the formulation of the technical active ingredient in acetone/water (50:50) solution containing 0.5% Tween 20 (polyoxyethylene sorbitan monolaurate, CAS RN 9005-64-5) to give a final dose of 1000 g/ha of test compound.
(§2) The test plants were then grown on under controlled conditions in a glasshouse (at 24/16° C., day/night; 14 hours light; 65% humidity) and watered twice daily. After 13 days the test was evaluated (100=total damage to plant; 0=no damage to plant).

Solanum nigrum (SOLNI) [2] = assay: as above; assay type: in vivo; settings: 312 h, 1,000 g/ha, post-emergence (sprayed after 8 days), evaluated after 13 days, 100=total damage, 0=no damage, read-out: Percentage damage caused to weed species, post-emergence, SOLNI
Description: as §1, §2

[3] = tested on: Amaranthus retroflexus (AMARE); assay: as above; assay type: in vivo; settings: 312 h, 1,000 g/ha, post-emergence (sprayed after 8 days), evaluated after 13 days, 100=total damage, 0=no damage, read-out: Percentage damage caused to weed species, post-emergence, AMARE
Description: as §1, §2

[4] = tested on: Echinochloa crus-galli (ECHCG); assay: as above; assay type: in vivo; settings: 312 h, 1,000 g/ha, post-emergence (sprayed after 8 days), evaluated after 13 days, 100=total damage, 0=no damage, read-out: Percentage damage caused to weed species, post-emergence, ECHCG
Description: as §1, §2

[5] = tested on: Alopecurus myosuroides (ALOMY); assay: as above; assay type: in vivo; settings: 312 h, 1,000 g/ha, post-emergence (sprayed after 8 days), evaluated after 13 days, 100=total damage, 0=no damage, read-out: Percentage damage caused to weed species, post-emergence, ALOMY
Description: as §1, §2

Setaria faberi (SETFA) [6] = assay: as above; assay type: in vivo; settings: 312 h, 1,000 g/ha, post-emergence (sprayed after 8 days), evaluated after 13 days, 100=total damage, 0=no damage, read-out: Percentage damage caused to weed species, post-emergence, SETFA
Description: as §1, §2

Maize cv GARLAND = assay: Safening on corn, general crop injury; assay type: in vivo; settings: 200 g ai/ha (with safener 200 + 200), sprayed at 3-leaf stage, 100% total damage, 0% no damage
Description: (§3) Maize seeds were sown into standard soil in pots and cultivated under controlled conditions in a glasshouse (at 24/18° C. day/night; 16 hours light; 65% humidity).
(§4) When the plants were at the vegetative stage of 3 leaves they were sprayed with an aqueous spray solution containing the components of the invention alone and where appropriate the herbicide safener (N-(2-methoxybenzoyl)-4-[(methylaminocarbonyl)amino]benzenesulfonamide). All the compounds used for the spray solution were present as an EC or SC formulation respectively. In addition a non-ionic surfactant (X-77 Spreader) was added to form a 0.2% v/v solution.
(§5) The spray solution was applied with a cabinet tracksprayer with a flat fan nozzle (Teejet 11002VS) and an application volume of 200 L/ha (at 2 bar).
(§6) The test plants were then grown on in a glasshouse under controlled conditions (at 24/18° C. day/night; 16 hours light; 65% humidity) and watered twice a day. After 7 and 17 days the test was evaluated for general crop injury (100% equals total damage to plant; 0% equals no damage to plant).

Maize cv CLAXXON = assay: Safening on corn, general crop injury; assay type: in vivo; settings: 200 g ai/ha (with safener 200 + 200), sprayed at 3-leaf stage, 100% total damage, 0% no damage
Description: as §3, §4, §5, §6

[7] = tested on: Ipomoea hederaceae (IPOHE); assay: Pre-emergence biological efficacy, glasshouse pot test; assay type: in vivo; settings: 312 h, 1,000 g/ha, evaluated after 13 days, 100=total damage, 0=no damage, read-out: Percentage damage caused to weed species, pre-emergence, IPOHE
Description: as §1, with “one day” for “8 days”
(§7) The test plants were then grown under controlled conditions in the glasshouse (at 24/16° C., day/night; 14 hours light; 65% humidity) and watered twice daily. After 13 days the test was evaluated (100=total damage to plant; 0=no damage to plant).

Solanum nigrum (SOLNI) [8] = assay: as above; assay type: in vivo; settings: 312 h, 1,000 g/ha, evaluated after 13 days, 100=total damage, 0=no damage, read-out: Percentage damage caused to weed species, pre-emergence, SOLNI
Description: as §1, with “one day” for “8 days”
as §7

[9] = tested on: Amaranthus retroflexus (AMARE); assay: as above; assay type: in vivo; settings: 312 h, 1,000 g/ha, evaluated after 13 days, 100=total damage, 0=no damage, read-out: Percentage damage caused to weed species, pre-emergence, AMARE
Description: as §1, with “one day” for “8 days”
as §7

[10] = tested on: Echinochloa crus-galli (ECHCG); assay: as above; assay type: in vivo; settings: 312 h, 1,000 g/ha, evaluated after 13 days, 100=total damage, 0=no damage, read-out: Percentage damage caused to weed species, pre-emergence, ECHCG
Description: as §1, with “one day” for “8 days”
as §7

[11] = tested on: Alopecurus myosuroides (ALOMY); assay: as above; assay type: in vivo; settings: 312 h, 1,000 g/ha, evaluated after 13 days, 100=total damage, 0=no damage, read-out: Percentage damage caused to weed species, pre-emergence, ALOMY
Description: as §1, with “one day” for “8 days”
as §7

Setaria faberi (SETFA) [12] = assay: as above; assay type: in vivo; settings: 312 h, 1,000 g/ha, evaluated after 13 days, 100=total damage, 0=no damage, read-out: Percentage damage caused to weed species, pre-emergence, SETFA
Description: as §1, with “one day” for “8 days”
as §7

melting point	Structure (SMILES)	pest or weed control at 1000 g/ha [1] [%]	pest or weed control at 1000 g/ha (Solanum nigrum (SOLNI) [2]) [%]	pest or weed control at 1000 g/ha [3] [%]	pest or weed control at 1000 g/ha [4] [%]	pest or weed control at 1000 g/ha [5] [%]	pest or weed control at 1000 g/ha (Setaria faberi (SETFA) [6]) [%]	Percentage damage caused to corn, Maize cv GARLAND, 7 days after application (Maize cv GARLAND) [%]	Percentage damage caused to corn, Maize cv GARLAND, 17 days after application (Maize cv GARLAND) [%]	Percentage damage caused to corn, Maize cv CLAXXON, 7 days after application (Maize cv CLAXXON) [%]	Percentage damage caused to corn, Maize cv CLAXXON, 17 days after application (Maize cv CLAXXON) [%]	pest or weed control at 1000 g/ha [7] [%]	pest or weed control at 1000 g/ha (Solanum nigrum (SOLNI) [8]) [%]	pest or weed control at 1000 g/ha [9] [%]	pest or weed control at 1000 g/ha [10] [%]	pest or weed control at 1000 g/ha [11] [%]	pest or weed control at 1000 g/ha (Setaria faberi (SETFA) [12]) [%]
–	C=Cc1c(C(=O)O)nc(Cl)c(F)c1N [Compound 1-12, 4-Amino-6-chloro-3-ethenyl-5-fluoro-pyridine-2-carboxylic acid]	100	90	100	90	90	90	60	50	60	50	100	100	100	90	90	100
141 to 146 °C (dec.)	C=Cc1c(N)cc(Cl)nc1C(=O)O [Compound 1-4, 4-amino-6-chloro-3-ethenyl-pyridine-2-carboxylic acid]	70	100	100	80	80	100	60	65	60	50	100	100	100	90	90	100
–	C=Cc1c(NC2CCCC2)cc(Cl)nc1C(=O)OC [Compound 27-4, 6-Chloro-4-cyclopentylamino-3-ethenyl-pyridine-2-carboxylic acid methyl ester]	60	80	100	10	10	70	–	–	–	–	50	100	100	10	50	70
–	C=Cc1c(NCC(C)O)cc(Cl)nc1C(=O)OC (stereo not drawn) [Compound 21-4, 6-Chloro-3-ethenyl-4-(2-hydroxypropylamino)-pyridine-2-carboxylic acid methyl ester]	50	100	100	80	70	80	–	–	–	–	80	100	100	90	90	90
–	C=Cc1c(C(=O)O)nc(Cl)c(Cl)c1N [Compound 1-20, 4-Amino-5,6-dichloro-3-ethenyl-pyridine-2-carboxylic acid]	100	90	100	90	90	90	–	–	–	–	100	100	100	90	90	90
–	C=Cc1c(N)cc(Cl)nc1C(=O)OC [Compound 2-4, 4-amino-6-chloro-3-ethenyl-pyridine-2-carboxylic acid methyl ester]	80	100	100	80	90	100	–	–	–	–	100	100	100	90	90	90
–	C=CCc1c(N)cc(Cl)nc1C(=O)OC [Compound 2-7, 4-amino-6-chloro-3-(prop-2-enyl)-pyridine-2-carboxylic acid methyl ester]	50	90	90	10	20	30	–	–	–	–	70	90	90	40	30	40
–	C=Cc1c(C(=O)OC)nc(Cl)c(Cl)c1N [Compound 2-20, 4-amino-5,6-dichloro-3-ethenyl-1-pyridine-2-carboxylic acid methyl ester]	100	100	100	90	90	90	–	–	–	–	100	100	100	90	90	90
